Measurements reported in patent US11339130B1 (Blade Therapeutics, Inc., priority 2016, dated 2022).
Where two headings read alike, the source gives them in different places.

Columns and labels:
[1] = test system: Calpain activity in SH-SY5Y cells; test: SH-SY5Y + AMC fluorescence assay (Suc-LLVY-AMC substrate); format: cell-based; details: read-out: SH-SY5Y + AMC IC50
Human Calpain 9/NS1 = target: T1, Human Calpain 9/NS1 (Homo sapiens, UniProt O14815); test: Calpain inhibition continuous fluorescence (FRET) assay, Human Calpain 9/NS1; format: biochemical; details: read-out: Human Calpain 9/NS1 IC50
T1 sequence (O14815 1-690): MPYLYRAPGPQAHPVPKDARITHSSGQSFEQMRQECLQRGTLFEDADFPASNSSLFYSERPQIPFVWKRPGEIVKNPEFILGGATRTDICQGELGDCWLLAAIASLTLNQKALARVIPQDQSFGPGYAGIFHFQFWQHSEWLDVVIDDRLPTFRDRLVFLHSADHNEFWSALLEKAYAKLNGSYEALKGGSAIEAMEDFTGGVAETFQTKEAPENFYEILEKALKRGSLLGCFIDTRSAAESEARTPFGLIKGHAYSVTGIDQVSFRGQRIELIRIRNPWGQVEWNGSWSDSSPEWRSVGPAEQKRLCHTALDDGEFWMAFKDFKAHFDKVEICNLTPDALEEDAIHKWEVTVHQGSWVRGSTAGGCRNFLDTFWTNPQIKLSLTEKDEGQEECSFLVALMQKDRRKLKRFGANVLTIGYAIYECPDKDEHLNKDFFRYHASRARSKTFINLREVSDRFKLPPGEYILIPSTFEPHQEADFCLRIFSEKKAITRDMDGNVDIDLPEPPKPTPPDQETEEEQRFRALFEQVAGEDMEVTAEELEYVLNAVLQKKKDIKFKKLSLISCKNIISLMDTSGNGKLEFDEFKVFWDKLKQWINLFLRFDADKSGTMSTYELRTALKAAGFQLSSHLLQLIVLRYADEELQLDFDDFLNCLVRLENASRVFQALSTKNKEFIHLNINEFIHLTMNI
T1 sequence (P04632 1-268 partner): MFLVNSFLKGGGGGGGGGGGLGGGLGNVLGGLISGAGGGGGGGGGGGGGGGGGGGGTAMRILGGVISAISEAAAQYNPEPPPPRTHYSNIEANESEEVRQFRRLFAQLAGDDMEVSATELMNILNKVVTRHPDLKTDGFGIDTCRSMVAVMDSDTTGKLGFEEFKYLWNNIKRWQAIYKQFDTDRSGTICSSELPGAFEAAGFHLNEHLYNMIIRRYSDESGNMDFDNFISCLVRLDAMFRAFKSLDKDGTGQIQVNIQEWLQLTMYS
How it was run: (§1)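 Buffer 50 mM Tris pH 7.5/100 mM NaCl/1 mM DTT; enzyme + cpd preinc 25C; start w/ FRET substrate + CaCl2; kinetic 490/520 nm, 10 min; slopes 1-5 min; 4-PL IC50.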

[2] = test system: Calpain activity in SH-SY5Y cells (SBDP-150); test: SH-SY5Y Spectrin western blot assay (SBDP-150 breakdown product, A23187-induced); format: cell-based; details: Homo sapiens, SH-SY5Y cells, read-out: SH-SY5Y Spectrin IC50
Human Calpain 1/NS1 = target: T2, Human Calpain 1/NS1 (Homo sapiens, UniProt P07384); test: Calpain inhibition continuous fluorescence (FRET) assay, Human Calpain 1/NS1; format: biochemical; details: read-out: Human Calpain 1/NS1 IC50
T2 sequence (P07384 1-714): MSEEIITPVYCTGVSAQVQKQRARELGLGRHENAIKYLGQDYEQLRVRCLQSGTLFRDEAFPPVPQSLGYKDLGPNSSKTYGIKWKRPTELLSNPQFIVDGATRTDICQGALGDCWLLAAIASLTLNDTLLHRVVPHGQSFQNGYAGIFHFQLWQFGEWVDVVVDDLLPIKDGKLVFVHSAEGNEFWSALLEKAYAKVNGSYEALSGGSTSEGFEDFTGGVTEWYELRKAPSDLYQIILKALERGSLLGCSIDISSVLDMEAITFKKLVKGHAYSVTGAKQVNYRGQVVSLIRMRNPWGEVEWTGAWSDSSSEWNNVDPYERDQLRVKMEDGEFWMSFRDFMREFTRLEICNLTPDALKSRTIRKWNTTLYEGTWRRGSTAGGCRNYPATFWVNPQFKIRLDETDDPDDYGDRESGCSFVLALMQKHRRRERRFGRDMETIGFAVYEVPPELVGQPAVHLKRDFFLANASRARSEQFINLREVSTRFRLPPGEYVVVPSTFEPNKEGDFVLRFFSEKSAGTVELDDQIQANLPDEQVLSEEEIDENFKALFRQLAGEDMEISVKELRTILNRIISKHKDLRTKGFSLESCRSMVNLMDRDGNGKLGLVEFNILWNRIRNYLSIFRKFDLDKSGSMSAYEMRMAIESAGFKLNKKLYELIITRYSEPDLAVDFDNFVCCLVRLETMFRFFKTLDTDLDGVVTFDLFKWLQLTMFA
T2 sequence (P04632 1-268 partner): T1 sequence (P04632 1-268 partner)
How it was run: as §1

Human Calpain 2/NS1 = target: T3, Human Calpain 2/NS1 (Homo sapiens, UniProt P17655); test: Calpain inhibition continuous fluorescence (FRET) assay, Human Calpain 2/NS1; format: biochemical; details: read-out: Human Calpain 2/NS1 IC50
T3 sequence (P17655 1-700): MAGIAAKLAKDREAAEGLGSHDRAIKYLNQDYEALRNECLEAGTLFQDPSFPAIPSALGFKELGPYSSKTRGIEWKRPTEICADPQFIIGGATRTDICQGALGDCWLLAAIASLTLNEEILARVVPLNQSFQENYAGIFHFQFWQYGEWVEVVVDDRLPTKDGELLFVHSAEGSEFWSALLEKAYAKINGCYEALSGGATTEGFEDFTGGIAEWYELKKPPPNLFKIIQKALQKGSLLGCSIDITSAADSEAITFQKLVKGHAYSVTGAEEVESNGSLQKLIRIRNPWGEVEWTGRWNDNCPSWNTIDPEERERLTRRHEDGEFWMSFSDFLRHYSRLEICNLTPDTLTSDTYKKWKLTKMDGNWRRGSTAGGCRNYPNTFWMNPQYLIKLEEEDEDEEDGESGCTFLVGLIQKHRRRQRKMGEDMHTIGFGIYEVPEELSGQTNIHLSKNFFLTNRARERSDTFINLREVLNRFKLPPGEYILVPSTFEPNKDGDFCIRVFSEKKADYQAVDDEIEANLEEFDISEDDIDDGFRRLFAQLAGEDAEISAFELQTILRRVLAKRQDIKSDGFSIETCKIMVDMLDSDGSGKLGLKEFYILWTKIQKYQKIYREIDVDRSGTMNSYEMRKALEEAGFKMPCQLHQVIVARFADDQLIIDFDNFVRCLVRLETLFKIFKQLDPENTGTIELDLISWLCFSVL
T3 sequence (P04632 1-268 partner): T1 sequence (P04632 1-268 partner)
How it was run: as §1

[3] = Column D, A23187-induced SBDP-150
[4] = A23187-induced SBDP-150, western blot

IC50 ([1]; Column E) | IC50 (Human Calpain 9/NS1; Column C) | IC50 [2, 3] | IC50 (Human Calpain 1/NS1; Column A) | IC50 (Human Calpain 2/NS1; Column B) | IC50 [1] | IC50 (Human Calpain 9/NS1) | IC50 [2, 4] | IC50 (Human Calpain 1/NS1) | IC50 (Human Calpain 2/NS1) | SMILES
> 25 µM | < 3 µM | < 10 µM | < 3 µM | < 3 µM |  |  |  |  |  | COc1ccc2nc(-n3nc(C(=O)N[C@@H](Cc4ccccc4)C(=O)C(N)=O)cc3C)sc2c1 [Compound 296, (S)—N-(4-amino-3,4-dioxo-1-phenylbutan-2-yl)-1-(6-methoxybenzo[d]thiazol-2-yl)-5-methyl-1H-pyrazole-3-carboxamide]
< 10 µM | < 3 µM | 10 to 25 µM | < 3 µM | < 3 µM |  |  |  |  |  | NC(=O)C(=O)[C@H](Cc1ccccc1)NC(=O)c1ocnc1-c1ccccc1 [Compound 303, (S)—N-(4-amino-3,4-dioxo-1-phenylbutan-2-yl)-4-phenyloxazole-5-carboxamide]
 |  |  |  |  | < 10 µM | < 3 µM | 10 to 25 µM | < 3 µM | < 3 µM | NC(=O)C(=O)[C@H](Cc1ccccc1)NC(=O)c1cn(-c2ccccc2)nc1-c1ccccc1 [Compound 309, (S)—N-(4-amino-3,4-dioxo-1-phenylbutan-2-yl)-1,3-diphenyl-1H-pyrazole-4-carboxamide]
 |  |  |  |  | > 25 µM | < 3 µM | > 25 µM | < 3 µM | < 3 µM | Cn1cc(C(=O)N[C@@H](Cc2ccccc2)C(=O)C(N)=O)c(-c2cnccn2)n1 [Compound 313, (S)—N-(4-amino-3,4-dioxo-1-phenylbutan-2-yl)-1-methyl-3-(pyrazin-2-yl)-1H-pyrazole-4-carboxamide]
 |  |  |  |  | > 25 µM | < 3 µM | 10 to 25 µM | < 3 µM | < 3 µM | Cn1cc(C(=O)N[C@H](C=O)Cc2ccccc2)c(-c2ccccc2)n1 [Compound 317, (S)-1-methyl-N-(1-oxo-3-phenylpropan-2-yl)-3-phenyl-1H-pyrazole-4-carboxamide]
 |  |  |  |  | > 25 µM | < 3 µM | 10 to 25 µM | < 3 µM | < 3 µM | Cc1cc(C(=O)NC(Cc2ccccc2)C(=O)C(N)=O)c(-n2ccc(-c3ccccc3)n2)s1 (centres unmarked) [Compound 320, N-(4-amino-3,4-dioxo-1-phenylbutan-2-yl)-5-methyl-2-(3-phenyl-1H-pyrazol-1-yl)thiophene-3-carboxamide]
 |  |  |  |  | > 25 µM | < 3 µM | < 10 µM | < 3 µM | < 3 µM | NC(=O)C(=O)C(Cc1ccccc1)NC(=O)c1nsnc1-c1cccc(F)c1 (centres unmarked) [Compound 321, N-(4-amino-3,4-dioxo-1-phenylbutan-2-yl)-4-(3-fluorophenyl)-1,2,5-thiadiazole-3-carboxamide]
 |  |  |  |  | > 25 µM | < 3 µM | 10 to 25 µM | < 3 µM | < 3 µM | Cc1nc(-c2ccccc2)c(C(=O)N[C@H](C=O)Cc2ccccc2)o1 [Compound 322, (S)-2-methyl-N-(1-oxo-3-phenylpropan-2-yl)-4-phenyloxazole-5-carboxamide]
 |  |  |  |  | > 25 µM | < 3 µM | > 25 µM | < 3 µM | < 3 µM | Cc1cccc(-c2nsnc2C(=O)NC(Cc2ccccc2)C(=O)C(N)=O)c1 (centres unmarked) [Compound 325, N-(4-amino-3,4-dioxo-1-phenylbutan-2-yl)-4-(M-tolyl)-1,2,5-thiadiazole-3-carboxamide]
 |  |  |  |  | < 10 µM | < 3 µM | 10 to 25 µM | < 3 µM | < 3 µM | Cc1ccccc1-c1nsnc1C(=O)NC(Cc1ccccc1)C(=O)C(N)=O (centres unmarked) [Compound 326, N-(4-amino-3,4-dioxo-1-phenylbutan-2-yl)-4-(o-tolyl)-1,2,5-thiadiazole-3-carboxamide]
 |  |  |  |  | < 10 µM | < 3 µM | < 10 µM | < 3 µM | < 3 µM | NC(=O)C(=O)C(Cc1ccccc1)NC(=O)c1nsnc1-c1ccccc1F (centres unmarked) [Compound 327, N-(4-amino-3,4-dioxo-1-phenylbutan-2-yl)-4-(2-fluorophenyl)-1,2,5-thiadiazole-3-carboxamide]
 |  |  |  |  | > 25 µM | < 3 µM | 10 to 25 µM | < 3 µM | < 3 µM | Cn1cc(C(=O)N[C@H](C=O)Cc2ccccc2)c(-c2cccc(F)c2)n1 [Compound 328, (S)-3-(3-fluorophenyl)-1-methyl-N-(1-oxo-3-phenylpropan-2-yl)-1H-pyrazole-4-carboxamide]
 |  |  |  |  | > 25 µM | < 3 µM | > 25 µM | < 3 µM | < 3 µM | Cc1cccc(-c2nn(C)cc2C(=O)N[C@H](C=O)Cc2ccccc2)c1 [Compound 329, (S)-1-methyl-N-(1-oxo-3-phenylpropan-2-yl)-3-(M-tolyl)-1H-pyrazole-4-carboxamide]
 |  |  |  |  | 10 to 25 µM | < 3 µM | 10 to 25 µM | < 3 µM | < 3 µM | O=C[C@H](Cc1ccccc1)NC(=O)c1cn(C2CC2)nc1-c1ccccc1 [Compound 330, (S)-1-cyclopropyl-N-(1-oxo-3-phenylpropan-2-yl)-3-phenyl-1H-pyrazole-4-carboxamide]
 |  |  |  |  | > 25 µM | < 3 µM | < 10 µM | < 3 µM | < 3 µM | Cc1cc(C)cc(C[C@H](NC(=O)c2cn(C)nc2-c2ccccc2)C(=O)C(N)=O)c1 [Compound 331]
 |  |  |  |  | > 25 µM | < 3 µM | > 25 µM | < 3 µM | < 3 µM | CC[C@H](NC(=O)c1cn(C)nc1-c1ccccc1)C(=O)C(N)=O [Compound 332, (S)—N-(1-amino-1,2-dioxopentan-3-yl)-1-methyl-3-phenyl-1H-pyrazole-4-carboxamide]
